Data as given in ChEMBL document CHEMBL5046296 (J Med Chem, 2022).
pIC50, pKi: −log10 of the molar value.

Tests used:
[1] = Displacement of 3H-LP-927443 from AAK1 in mouse brain membrane homogenate assessed as inhibition constant at 1 uM incubated for 1 hr by liquid scintillation counter analysis; assay type: cell membranes
[2] = target: T1, AP2-associated protein kinase 1 (Homo sapiens, UniProt Q2M2I8); assay: Inhibition of […] in HEK293F cells assessed as reduction in phospho mu2 formation incubated for 3 hrs by Western blot analysis; assay type: cell-based
T1 sequence (Q2M2I8 whole entry): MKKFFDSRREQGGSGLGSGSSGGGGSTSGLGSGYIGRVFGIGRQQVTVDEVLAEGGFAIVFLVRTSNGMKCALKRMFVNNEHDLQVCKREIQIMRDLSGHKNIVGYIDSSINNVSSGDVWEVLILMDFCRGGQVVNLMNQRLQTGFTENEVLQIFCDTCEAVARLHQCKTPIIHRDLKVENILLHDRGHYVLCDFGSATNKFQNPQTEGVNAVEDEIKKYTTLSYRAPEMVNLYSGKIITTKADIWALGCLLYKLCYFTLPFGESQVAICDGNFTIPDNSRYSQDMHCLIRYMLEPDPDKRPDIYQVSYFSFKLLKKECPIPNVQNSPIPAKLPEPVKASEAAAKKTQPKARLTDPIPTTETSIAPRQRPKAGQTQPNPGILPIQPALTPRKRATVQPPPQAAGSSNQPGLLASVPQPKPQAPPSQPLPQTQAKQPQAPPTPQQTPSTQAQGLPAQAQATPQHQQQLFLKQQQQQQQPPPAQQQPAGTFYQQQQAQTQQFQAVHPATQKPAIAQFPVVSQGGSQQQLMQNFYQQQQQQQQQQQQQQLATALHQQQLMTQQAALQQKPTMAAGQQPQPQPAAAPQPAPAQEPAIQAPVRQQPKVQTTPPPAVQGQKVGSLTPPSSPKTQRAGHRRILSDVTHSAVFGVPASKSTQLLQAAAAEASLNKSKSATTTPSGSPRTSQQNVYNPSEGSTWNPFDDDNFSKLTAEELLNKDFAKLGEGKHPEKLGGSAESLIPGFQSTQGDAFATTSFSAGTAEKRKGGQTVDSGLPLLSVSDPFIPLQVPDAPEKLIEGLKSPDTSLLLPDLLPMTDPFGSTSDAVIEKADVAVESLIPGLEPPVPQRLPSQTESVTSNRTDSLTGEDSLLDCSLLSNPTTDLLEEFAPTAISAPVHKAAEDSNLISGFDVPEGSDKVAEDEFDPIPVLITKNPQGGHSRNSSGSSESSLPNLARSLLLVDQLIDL

[3] = Metabolic stability in rat liver microsomes assessed as CYP450-mediated metabolism by measuring parent compound remaining at 0.5 uM incubated for 10 mins in presence of NADPH by LC-MS/MS analysis; assay type: ADME; settings: read-out: Stability
Cytochrome P450 = Cytochrome P450 (Homo sapiens, UniProt P04798+P05177+P05181+P08684+P10632+P10635+P11509+P11712+P13584+P20813+P20815+P20853+P24462+P24903+P33260+P33261+P51589+P78329+P98187+Q02928+Q08477+Q16678+Q16696+Q5TCH4+Q6VVX0+Q7Z449+Q8TAV3+Q96SQ9+Q9HB55); assay: Metabolic stability in human liver microsomes assessed as CYP450-mediated metabolism by measuring parent compound remaining at 0.5 uM incubated for 10 mins in presence of NADPH by LC-MS/MS analysis; assay type: ADME; settings: read-out: Stability
Aorta = assay: Cardiotoxicity in rat aortic ring assessed as relaxation of phenylephrine induced aortic ring contraction at 10 uM incubated for 1 hr; assay type: toxicity, tissue-based; parameters: scale not given: the % may be the effect or the level left
[4] = target: T1, AP2-associated protein kinase 1; assay: Inhibition of GST-Xa tagged human AAK1 (30 to 330 residues) expresssed in bacteria using (5-FAM)-Aha-KEEQSQITSQVTGQIGWR-NH2 peptide as substrate incubated for 3 hrs in presence of ATP by electrophoretic analysis
[5] = Metabolic stability in mouse liver microsomes assessed as CYP450-mediated metabolism by measuring parent compound remaining at 0.5 uM incubated for 10 mins in presence of NADPH by LC-MS/MS analysis; assay type: ADME; settings: read-out: Stability
Cytochrome P450 3A4 = Cytochrome P450 3A4 (Homo sapiens, UniProt P08684); assay: Inhibition of CYP3A4 (unknown origin) using BFC as substrate; assay type: ADME
Sequence of Cytochrome P450 3A4 (P08684 whole entry): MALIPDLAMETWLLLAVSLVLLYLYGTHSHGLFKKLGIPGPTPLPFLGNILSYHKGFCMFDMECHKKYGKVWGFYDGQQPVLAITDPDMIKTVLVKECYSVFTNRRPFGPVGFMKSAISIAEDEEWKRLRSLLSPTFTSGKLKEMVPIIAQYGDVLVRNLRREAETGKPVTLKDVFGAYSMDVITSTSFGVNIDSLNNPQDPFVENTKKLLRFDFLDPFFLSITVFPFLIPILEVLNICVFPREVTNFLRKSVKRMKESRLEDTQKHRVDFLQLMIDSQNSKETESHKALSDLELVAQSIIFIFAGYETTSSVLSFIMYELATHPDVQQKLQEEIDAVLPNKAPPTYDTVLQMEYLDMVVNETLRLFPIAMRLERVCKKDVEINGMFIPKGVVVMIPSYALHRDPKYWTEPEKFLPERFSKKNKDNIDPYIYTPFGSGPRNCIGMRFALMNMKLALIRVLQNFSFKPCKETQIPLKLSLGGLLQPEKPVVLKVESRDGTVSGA

[6] = Permeability across basolateral to apical side in human Caco-2 cells at 3 uM measured after 2 hrs by LC-MS/MS analysis; assay type: ADME, cell-based; settings: read-out: permeability
[7] = target: cGMP-dependent protein kinase 2 (Homo sapiens, UniProt Q13237); assay: Inhibition of PKG2 (unknown origin)
[8] = Protein binding in rat plasma assessed as unbound fraction at 10 uM measured after 5 hrs by LC-MS/MS analysis; assay type: ADME, cell-free
[9] = Permeability across apical to basolateral side in human Caco-2 cells at 3 uM measured after 2 hrs by LC-MS/MS analysis; assay type: ADME, cell-based; settings: read-out: permeability
[10] = Permeability of compound at pH 7.4 measured after 4 hrs by PAMPA assay; assay type: ADME; settings: read-out: permeability
[11] = target: MAP kinase-interacting serine/threonine-protein kinase 1 (Homo sapiens, UniProt Q9BUB5); assay: Inhibition of MNK1 (unknown origin)
Sequence of MAP kinase-interacting serine/threonine-protein kinase 1 (Q9BUB5 whole entry): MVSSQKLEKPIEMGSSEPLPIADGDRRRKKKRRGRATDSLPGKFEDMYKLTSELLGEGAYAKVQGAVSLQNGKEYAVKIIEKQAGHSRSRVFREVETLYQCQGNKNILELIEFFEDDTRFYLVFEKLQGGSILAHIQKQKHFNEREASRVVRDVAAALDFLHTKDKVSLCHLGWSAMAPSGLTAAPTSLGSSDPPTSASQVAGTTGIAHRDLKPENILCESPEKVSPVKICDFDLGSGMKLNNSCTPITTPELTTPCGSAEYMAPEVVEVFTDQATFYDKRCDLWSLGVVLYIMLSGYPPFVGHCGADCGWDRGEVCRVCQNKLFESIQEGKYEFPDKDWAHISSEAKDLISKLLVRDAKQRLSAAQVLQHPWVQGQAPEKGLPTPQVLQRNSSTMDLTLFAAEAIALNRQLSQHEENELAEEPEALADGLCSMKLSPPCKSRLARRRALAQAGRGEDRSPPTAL

[12] = target: BMP-2-inducible protein kinase (Homo sapiens, UniProt Q9NSY1); assay: Inhibition of BIKE (unknown origin)
Sequence of BMP-2-inducible protein kinase (Q9NSY1 whole entry): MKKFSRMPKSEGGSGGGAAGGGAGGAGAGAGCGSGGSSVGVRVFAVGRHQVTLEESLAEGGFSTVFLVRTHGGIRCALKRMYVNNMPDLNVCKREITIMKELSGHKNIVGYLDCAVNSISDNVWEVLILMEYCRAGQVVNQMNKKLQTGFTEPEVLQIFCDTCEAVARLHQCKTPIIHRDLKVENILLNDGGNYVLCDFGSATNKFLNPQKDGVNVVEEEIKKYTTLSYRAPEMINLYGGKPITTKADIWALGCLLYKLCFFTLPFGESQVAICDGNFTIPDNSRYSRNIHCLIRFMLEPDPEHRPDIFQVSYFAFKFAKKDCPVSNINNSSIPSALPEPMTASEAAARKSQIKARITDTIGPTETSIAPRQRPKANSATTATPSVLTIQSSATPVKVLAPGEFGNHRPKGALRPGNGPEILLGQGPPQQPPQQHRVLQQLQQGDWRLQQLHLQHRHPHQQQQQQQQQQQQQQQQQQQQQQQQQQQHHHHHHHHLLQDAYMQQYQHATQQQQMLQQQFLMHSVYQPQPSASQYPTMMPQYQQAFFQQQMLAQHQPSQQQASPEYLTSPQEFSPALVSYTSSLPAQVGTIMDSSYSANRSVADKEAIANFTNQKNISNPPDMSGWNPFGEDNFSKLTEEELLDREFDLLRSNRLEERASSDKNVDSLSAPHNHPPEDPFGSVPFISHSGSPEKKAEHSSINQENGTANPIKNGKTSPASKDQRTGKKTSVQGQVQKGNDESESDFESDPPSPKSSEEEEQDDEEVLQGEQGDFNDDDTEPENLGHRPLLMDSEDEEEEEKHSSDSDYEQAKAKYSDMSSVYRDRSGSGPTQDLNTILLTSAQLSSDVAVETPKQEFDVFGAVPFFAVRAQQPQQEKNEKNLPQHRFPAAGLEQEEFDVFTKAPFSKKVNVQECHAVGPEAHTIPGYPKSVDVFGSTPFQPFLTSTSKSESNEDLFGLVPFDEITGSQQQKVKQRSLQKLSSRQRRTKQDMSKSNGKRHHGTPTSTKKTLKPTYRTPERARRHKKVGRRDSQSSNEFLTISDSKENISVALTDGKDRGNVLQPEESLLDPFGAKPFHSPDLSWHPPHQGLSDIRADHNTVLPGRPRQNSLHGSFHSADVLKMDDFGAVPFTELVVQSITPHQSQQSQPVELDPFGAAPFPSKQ

[13] = Permeability of compound at pH 5.5 measured after 4 hrs by PAMPA assay; assay type: ADME; settings: read-out: permeability
[14] = target: Serine/threonine-protein kinase N2 (Homo sapiens, UniProt Q16513); assay: Inhibition of PRK2 (unknown origin)
[15] = target: Rho-associated protein kinase 2 (Homo sapiens, UniProt O75116); assay: Inhibition of ROCK2 (unknown origin)
[16] = target: Citron Rho-interacting kinase (Homo sapiens, UniProt O14578); assay: Inhibition of CRIK (unknown origin)
Sequence of Citron Rho-interacting kinase (O14578 whole entry): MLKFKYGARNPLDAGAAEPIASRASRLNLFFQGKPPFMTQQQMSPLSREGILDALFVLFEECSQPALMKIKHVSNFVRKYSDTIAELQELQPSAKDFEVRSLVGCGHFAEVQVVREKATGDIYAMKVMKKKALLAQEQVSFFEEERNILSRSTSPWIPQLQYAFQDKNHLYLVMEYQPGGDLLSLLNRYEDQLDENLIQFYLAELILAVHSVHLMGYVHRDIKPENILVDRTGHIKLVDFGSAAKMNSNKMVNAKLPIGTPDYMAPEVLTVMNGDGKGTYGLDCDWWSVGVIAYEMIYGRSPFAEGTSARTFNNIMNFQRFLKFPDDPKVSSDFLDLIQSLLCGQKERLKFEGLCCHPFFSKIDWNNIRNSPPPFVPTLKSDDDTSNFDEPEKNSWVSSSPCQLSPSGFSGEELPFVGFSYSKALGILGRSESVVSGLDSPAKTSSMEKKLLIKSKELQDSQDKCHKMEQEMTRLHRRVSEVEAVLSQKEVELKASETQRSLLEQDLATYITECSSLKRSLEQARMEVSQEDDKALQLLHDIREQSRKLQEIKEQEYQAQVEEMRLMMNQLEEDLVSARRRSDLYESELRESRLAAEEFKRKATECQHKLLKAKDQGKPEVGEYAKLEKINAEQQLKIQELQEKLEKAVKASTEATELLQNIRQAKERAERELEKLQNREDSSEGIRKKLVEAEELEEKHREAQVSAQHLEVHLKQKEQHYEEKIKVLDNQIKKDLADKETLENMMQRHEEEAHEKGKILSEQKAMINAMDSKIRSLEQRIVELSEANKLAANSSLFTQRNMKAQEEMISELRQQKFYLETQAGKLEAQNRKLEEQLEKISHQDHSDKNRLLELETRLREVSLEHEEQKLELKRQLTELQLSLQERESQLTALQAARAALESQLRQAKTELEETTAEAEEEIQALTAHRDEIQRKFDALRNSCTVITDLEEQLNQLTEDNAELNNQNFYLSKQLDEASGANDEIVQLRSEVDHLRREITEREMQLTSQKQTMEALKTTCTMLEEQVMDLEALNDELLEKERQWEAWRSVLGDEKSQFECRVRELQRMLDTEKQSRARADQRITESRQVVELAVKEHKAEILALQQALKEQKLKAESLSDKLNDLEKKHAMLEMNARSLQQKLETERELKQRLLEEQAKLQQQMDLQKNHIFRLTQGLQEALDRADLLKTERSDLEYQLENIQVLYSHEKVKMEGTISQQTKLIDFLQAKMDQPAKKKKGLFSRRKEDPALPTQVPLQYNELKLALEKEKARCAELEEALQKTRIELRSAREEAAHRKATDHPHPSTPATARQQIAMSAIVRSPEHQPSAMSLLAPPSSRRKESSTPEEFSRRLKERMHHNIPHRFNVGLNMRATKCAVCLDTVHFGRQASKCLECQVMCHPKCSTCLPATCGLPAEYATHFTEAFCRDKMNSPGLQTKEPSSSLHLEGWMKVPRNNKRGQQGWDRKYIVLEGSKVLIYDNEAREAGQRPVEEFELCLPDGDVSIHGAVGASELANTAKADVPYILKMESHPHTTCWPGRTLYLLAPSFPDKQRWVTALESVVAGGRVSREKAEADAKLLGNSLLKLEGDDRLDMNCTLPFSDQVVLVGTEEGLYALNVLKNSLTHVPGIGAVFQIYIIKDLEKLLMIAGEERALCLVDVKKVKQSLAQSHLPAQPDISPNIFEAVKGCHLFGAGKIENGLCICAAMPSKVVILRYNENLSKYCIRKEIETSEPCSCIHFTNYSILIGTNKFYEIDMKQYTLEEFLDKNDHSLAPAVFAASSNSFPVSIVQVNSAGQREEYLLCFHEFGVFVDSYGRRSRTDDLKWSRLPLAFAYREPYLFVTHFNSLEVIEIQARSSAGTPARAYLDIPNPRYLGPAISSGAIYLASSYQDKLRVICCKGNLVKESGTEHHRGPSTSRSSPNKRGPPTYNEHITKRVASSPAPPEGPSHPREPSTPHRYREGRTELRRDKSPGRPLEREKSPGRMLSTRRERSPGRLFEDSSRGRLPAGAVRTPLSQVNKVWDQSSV

[17] = Protein binding in mouse plasma assessed as unbound fraction at 10 uM measured after 5 hrs by LC-MS/MS analysis; assay type: ADME, cell-free
[18] = Protein binding in human plasma assessed as unbound fraction at 10 uM measured after 5 hrs by LC-MS/MS analysis; assay type: ADME, cell-free
[19] = target: Cyclin-G-associated kinase (Homo sapiens, UniProt O14976); assay: Inhibition of GAK (unknown origin)
[20] = Inhibition of PCKA (unknown origin); parameters: species or system Homo sapiens
[21] = Toxicity in naive Sprague-Dawley rat assessed as motor impairment at 100 mg/kg, po measured after 5 hrs by rotarod test; assay type: organism-based; settings: in vivo

In the case of Cc1cc(-c2ccc(OC[C@@](C)(N)CC(C)C)c(C(F)F)n2)ccn1, the pKi [1] was 8.96, the pIC50 [2] was 7.96 and the remaining at 10 min, 0.5 µM [3] was 82%. It also gave a remaining at 10 min, 0.5 µM (Cytochrome P450) of 81%, an Activity (Aorta) of 26% and a pIC50 [4] of 8.54. The remaining at 10 min, 0.5 µM [5] was 71%.
Cc1cc(-c2ccc(OC[C@@H](N)CC(C)C)c(C#N)c2)ccn1 showed a pKi [1] of 9.15, a pIC50 [2] of 7.05 and a pIC50 [4] of 9.10. It also gave a pIC50 (Cytochrome P450 3A4) of 5.62.
Molecule Cc1cc(-c2ccc(OC[C@@](C)(N)CC(C)C)c(C#N)c2)ccn1 has a pIC50 (Cytochrome P450 3A4) of under 4.70.
For CC(C)C[C@](C)(N)COc1ccc(-c2ccnc(Cl)c2)nc1C(F)F, the remaining at 10 min, 0.5 µM [3] was 87%, the remaining at 10 min, 0.5 µM (Cytochrome P450) was 97% and the Activity (Aorta) was 59%. The pIC50 [4] was 8.41 and the remaining at 10 min, 0.5 µM [5] was 85%.
CC(C)C[C@](C)(N)COc1ccc(-c2ccnc(F)c2)cc1C(F)(F)F showed a pIC50 (Cytochrome P450 3A4) of under 4.70.
With CC(C)C[C@](C)(N)COc1ccc(-c2ccnc(C(F)F)c2)cc1C(F)F the Papp B→A at 2 h, 3 µM [6] was 6.2 ×10⁻⁶ cm/s, the pKi [1] was 10.40 and the pIC50 [7] was 6.38. It also gave a pIC50 [2] of 9.05, a remaining at 10 min, 0.5 µM [3] of 83% and a remaining at 10 min, 0.5 µM (Cytochrome P450) of 96%. For the same molecule, the fraction unbound at 5 h, 10 µM [8] was 0.045, the Activity (Aorta) was 84% and the Papp A→B at 2 h, 3 µM [9] was 10.8 ×10⁻⁶ cm/s. The Papp at 4 h [10] was 42.7 ×10⁻⁶ cm/s, the pIC50 [4] was 9.40 and the pIC50 [11] was 6.74. For the same molecule, the pIC50 [12] was 6.55, the Papp at 4 h [13] was 99.9 ×10⁻⁶ cm/s and the pIC50 [14] was 6.36. It also gave a pIC50 (Cytochrome P450 3A4) of 4.80, a pIC50 [15] of 6.38 and a pIC50 [16] of 7.25. The fraction unbound at 5 h, 10 µM [17] was 0.018, the fraction unbound at 5 h, 10 µM [18] was 0.046 and the pIC50 [19] was 7.14. For the same molecule, the pIC50 [20] was 6.24.
For Cc1cc(-c2ccc(OC[C@@](C)(N)CC(C)C)c(C)n2)ccn1, the pKi [1] was 8.14, the remaining at 10 min, 0.5 µM [3] was 83% and the remaining at 10 min, 0.5 µM (Cytochrome P450) was 95%. For the same molecule, the Activity (Aorta) was 1%, the pIC50 [4] was 7.44 and the remaining at 10 min, 0.5 µM [5] was 78%.
In the case of Cc1cc(-c2ccc(OC[C@@](C)(N)CC(C)C)c(C3CC3)c2)ccn1, the pIC50 (Cytochrome P450 3A4) was under 4.70.
For COc1cc(-c2ccc(OC[C@@H](N)CC(C)C)c(C#N)c2)ccn1, the pIC50 (Cytochrome P450 3A4) was 6.27.
For Cc1cc(-c2ccc(OC[C@@](C)(N)CC(C)C)c(C(F)F)c2)ccn1, the Papp B→A at 2 h, 3 µM [6] was 6 ×10⁻⁶ cm/s, the pKi [1] was 10.10 and the pIC50 [2] was 9.10. It also gave a remaining at 10 min, 0.5 µM [3] of 81%, a remaining at 10 min, 0.5 µM (Cytochrome P450) of 74% and a fraction unbound at 5 h, 10 µM [8] of 0.031. It also gave an Activity (Aorta) of 57%, a Papp A→B at 2 h, 3 µM [9] of 9.5 ×10⁻⁶ cm/s and a Papp at 4 h [10] of 31.9 ×10⁻⁶ cm/s. For the same molecule, the pIC50 [4] was 9.40, the Papp at 4 h [13] was 69.7 ×10⁻⁶ cm/s and the remaining at 10 min, 0.5 µM [5] was 69%. It also gave a pIC50 (Cytochrome P450 3A4) of under 4.70, a fraction unbound at 5 h, 10 µM [17] of 0.02 and a fraction unbound at 5 h, 10 µM [18] of 0.037.
In the case of CC(C)C[C@](C)(N)COc1ccc(-c2ccnc(C(F)F)c2)cc1C1CC1, the Papp at 4 h [13] was 78.4 ×10⁻⁶ cm/s and the pIC50 (Cytochrome P450 3A4) was under 4.70.
With NCC1(CC(=O)O)CCCCC1 [GABAPENTIN] the Activity [21] was “Non-Toxic”.
